This is an account of results in publication PMC3320663 (Chemmedchem, 2011).

Several values for one entry are separate records, joined by “and”; a condition that tells them apart may be missing. Identical values can stand only once. Like-named read-outs stand apart in the source and are kept apart here. Some results are limits rather than exact numbers.

One series concerns the target T1, TbTryS (Trypanosoma brucei, UniProt Q586P2).
T1 sequence (Q586P2 1-627): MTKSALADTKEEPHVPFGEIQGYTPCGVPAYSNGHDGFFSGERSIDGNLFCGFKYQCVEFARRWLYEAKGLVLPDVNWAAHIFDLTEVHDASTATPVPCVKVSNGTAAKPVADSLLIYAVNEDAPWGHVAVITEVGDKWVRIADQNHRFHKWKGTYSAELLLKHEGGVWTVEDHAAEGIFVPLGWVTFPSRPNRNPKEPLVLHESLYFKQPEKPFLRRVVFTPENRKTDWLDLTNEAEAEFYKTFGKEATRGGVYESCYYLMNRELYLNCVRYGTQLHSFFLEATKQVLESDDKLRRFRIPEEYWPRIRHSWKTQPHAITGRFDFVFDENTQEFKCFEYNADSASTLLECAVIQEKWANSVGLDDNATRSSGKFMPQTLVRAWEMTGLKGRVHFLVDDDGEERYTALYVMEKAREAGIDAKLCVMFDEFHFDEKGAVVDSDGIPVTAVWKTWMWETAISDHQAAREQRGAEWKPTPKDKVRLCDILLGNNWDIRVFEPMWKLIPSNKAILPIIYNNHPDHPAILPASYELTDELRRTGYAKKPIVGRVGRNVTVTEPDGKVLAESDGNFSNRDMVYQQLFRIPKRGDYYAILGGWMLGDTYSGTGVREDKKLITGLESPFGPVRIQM
Kind of series: Trypanothione synthetase. The settings on record: for LE (ligand efficiency): calculated as −0.6×ln(IC50)/(heavy atom count). The format is biochemical.

In series [1] the test system is bloodstream form T. brucei. In words: Trypanosomal cell proliferation assay. The format is cell-based. Conditions: Trypanosoma brucei, read-out: Tb EC50.
Series [2] can be described thus: In vitro metabolic clearance assay. The format is in vitro ADME, human. The settings on record: for metabolic stability in words: pooled human liver microsomes; for Cli (intrinsic clearance): pooled human microsomes.
A short description of series [3]: Human cell counter-screen proliferation assay. The format is cell-based. Conditions: MRC5 fibroblasts. (In general: A counterscreen serves to expose hits that act by an unwanted route or on another target.)
In series [4] the test system is wild-type T. brucei cells. Conditions: read-out: EC50 wild-type cell line; cited from earlier work.
The subject of series [5] is TbTryS overexpressing (OE) cell line. Conditions: read-out: EC50 OE cell line; cited from earlier work.
Series [6] deals with TbTryS single knockout (SKO) cell line. The settings on record: read-out: EC50 SKO cell line; cited from earlier work.
The test system of series [7] is trypanothione levels in T. brucei parasites. The settings on record: of wild-type levels; 2×EC50 for 72 h; cited from earlier work.
Series [8] concerns bloodstream form T. brucei. The settings on record: read-out: cell potency, cited from earlier work.

What is called IC50 is the concentration at which inhibition is half-maximal. Read a low IC50 as greater potency. As for `O=C(Cn1nc(C(F)(F)F)c2c1CCCC2)NCc1ccc(Cl)cc1` [Compound 26, N-(4-Chlorobenzyl)-2-(3-(trifluoromethyl)-4,5,6,7-tetrahydro-1H-indazol-1-yl)acetamide], the IC50 against TbTryS (TbTryS IC50) worked out at 3 µM. Besides, the EC50 in [1] worked out at 14 µM. In series [2], the “metabolic stability in words” value was “reasonably metabolically stable” and the “Cli (intrinsic clearance)” value is 3.0 mL/min/g. Also, the EC50 in series [3] was more than 50 µM.

Consider `CN(C)CCCNC(=O)Cn1nc(-c2cccc(F)c2)c2ccccc21` [Compound 84, N-(3-(Dimethylamino)propyl)-2-(3-(3-fluorophenyl)-1H-indazol-1-yl)acetamide], for which the EC50 is 7.1 µM in series [4]; 23.3 µM in series [5]; 1.2 µM in series [6]; 5.4 µM in [1]; 20 µM in series [3]. The trypanothione levels in [7] was less than 10%. For the same compound, on TbTryS, the “in vitro enzyme potency improved over the best HTS hits” value is given as more than 10 fold. The “improvement in potency over the analogous piperazines” value on TbTryS (83 vs 90, 84 vs 80) was 18 fold. Besides, the “LE (ligand efficiency)” value on TbTryS was 0.39.

With `O=C(Cn1nc(-c2cccc(F)c2)c2ccccc21)N1CCCCC1` [Compound 89, 2-(3-(3-Fluorophenyl)-1H-indazol-1-yl)-1-(piperidin-1-yl)ethanone], the EC50 was 20.4 µM in series [4]; 44.5 µM in series [5]; 6.9 µM in [6]; 5.1 µM in series [1]; more than 50 µM in series [3]. In addition, the trypanothione levels in [7] is reported as less than 10%. The half-maximal inhibitory concentration (IC50) amounted to 0.14 µM against TbTryS (TbTryS IC50) and 0.135 µM against TbTryS (TbTryS IC50, values in running text). On TbTryS, the “LE (ligand efficiency)” value is on record as 0.38.

Take `Nc1nc(N)nc(Nc2ccc([As]3SCC(CO)S3)cc2)n1` (centres unmarked) [melarsoprol]: in series [8] (drug in clinical use), the EC50 was 0.008 µM.

As for `CC1CS(=O)(=O)CCN1/N=C/c1ccc([N+](=O)[O-])o1` (centres unmarked) [nifurtimox], in [8] (drugs in clinical use), the EC50 was 2 µM.

For `CC(C)(C)S(=O)(=O)Cc1nc(-c2cccc(Cl)c2)cs1` [Compound 8, 2-((tert-Butylsulfonyl)methyl)-4-(3-chlorophenyl)thiazole], the IC50 at TbTryS (TbTryS IC50) is 0.4 µM and 0.41 µM. Also, the EC50 in series [1] was 22 µM; in [3], more than 50 µM. The “metabolic stability in words” value in series [2] was “reasonably metabolically stable”. The “Cli (intrinsic clearance)” value in [2] is 0.9 mL/min/g.

Take `O=C(Cn1nc(-c2cccc(F)c2)c2ccccc21)NCCCn1ccnc1` [Compound 81, N-(3-(1H-Imidazol-1-yl)propyl)-2-(3-(3-fluorophenyl)-1H-indazol-1-yl)acetamide]: on TbTryS, the “decrease in potency relative to 84” value is given as “eight” and the “LE (ligand efficiency)” value is 0.32. The same compound had an IC50 against TbTryS (TbTryS IC50) of 0.35 µM.

`Cc1cc(Cn2nc(-c3cccc(F)c3)c3ccccc32)no1` [Compound 79, 3-((3-(3-Fluorophenyl)-1H-indazol-1-yl)methyl)-5-methylisoxazole]: the IC50 against TbTryS (TbTryS IC50) is more than 100 µM.

Consider `CC(C)(C)C(=O)Cn1nc(-c2cccc(F)c2)c2ccccc21` [Compound 71, 1-(3-(3-Fluorophenyl)-1H-indazol-1-yl)-3,3-dimethylbutan-2-one], for which, at TbTryS, the “in vitro enzyme potency improved over the best HTS hits” value is more than 10 fold and the “LE (ligand efficiency)” value is 0.42. Besides, it took 0.09 µM to reach half-maximal inhibition on TbTryS (TbTryS IC50) (IC50). Moreover, the EC50 in series [1] turned out to be 7.9 µM. In [2], the “metabolic stability in words” value was “reasonably metabolically stable” and the “Cli (intrinsic clearance)” value came to 1.6 mL/min/g. The same compound yielded an EC50 in series [3] of more than 50 µM.

On TbTryS (TbTryS IC50), `CC(C)(C)S(=O)(=O)Cn1nc(-c2cccc(F)c2)c2ccccc21` [Compound 74, 1-(tert-Butylsulfonylmethyl)-3-(3-fluorophenyl)-1H-indazole] showed an IC50 of 0.12 µM. In addition, the “LE (ligand efficiency)” value at TbTryS is 0.40.

At TbTryS (TbTryS IC50), `CN(C)C(=O)Cn1nnc(-c2cc(Cl)cc(Cl)c2)n1` [Compound 23, 2-(5-(3,5-Dichlorophenyl)-2H-tetrazol-2-yl)-N,N-dimethylacetamide] registered an IC50 of 0.6 µM.

As to `CC(C)(C)C(=O)Cn1nc(-c2ccc3ccccc3c2)c2ccccc21` [Compound 64, 3,3-Dimethyl-1-(3-(naphthalen-2-yl)-1H-indazol-1-yl)butan-2-one], the IC50 against TbTryS (TbTryS IC50) is more than 100 µM.

For `NCCCC(N)(C(=O)O)C(F)F` (centres unmarked) [eflornithine], the EC50 in series [8] (drugs in clinical use) was 22 µM.

As to `CC(C)(C)C(=O)Cn1nnc(-c2cc(Cl)cc(Cl)c2)n1` [Compound 20, 1-(5-(3,5-Dichlorophenyl)-2H-tetrazol-2-yl)-3,3-dimethylbutan-2-one], on TbTryS, the “gain in potency relative to unsubstituted scaffold 14” value worked out at 25 fold and the “LE (ligand efficiency)” value is recorded as 0.45. This compound also came in with a half-inhibitory concentration (IC50) against TbTryS (TbTryS IC50) of 0.3 µM.

With `CC(C)(C)C(=O)Cn1nc(-c2ccccc2)c2ccccc21` [Compound 60, 1-(3-Phenyl-1H-indazol-1-yl)-3,3-dimethylbutan-2-one], the IC50 against TbTryS (TbTryS IC50) is 0.15 µM. This lies in the sub-micromolar range.
